From patent publication US20250134907A1, “FUSED DIAZEPINES AS AGONISTS OF THE INSULIN-LIKE 3 (INSL3) PEPTIDE RECEPTOR RXFP2 AND METHODS OF USE THEREOF” (The United States of America,as represented by the …, priority 2022, published 2025)

Experiments:
HEK293T cells = test: CellTiter-Glo cytotoxicity assay in HEK293T cells; type: cell-based, human; settings: 24 h, 25 μM and 8.3 μM
Experimental: Cytotoxicity induced by the compounds in HEK293T cells and primary human calvarial osteoblasts (HCO) (ScienCell Research Laboratories, San Diego, CA) were tested using the […]-GLO™ Luminescent Cell Viability Assay (Promega, Madison, WI). This is a luminescence-based assay that determines viable cells by measuring cellular adenosine triphosphate (ATP) production. The luciferase enzyme requires ATP to catalyze the conversion of beetle luciferin to oxyluciferin and light. Thus, luciferase activity is proportional to ATP accumulation in the cells. For this assay, 96-well flat-bottom opaque plates seeded with HEK293T cells at 5,000 cells/well and HCO cells at 3,000 cells/well in 100 μL/well of growth medium (DMEM, 10% FBS, 1× Penicillin/Streptomycin). After incubating overnight at 37° C., 5% CO2 to allow attachment, cells were treated with 1 μL/well of compound (25-0.1 μM) or DMSO vehicle and incubated an additional 24 hours. Then cells were equilibrated for 30 minutes at room temperature and 100 μL/well of […]-GLO™ Reagent was added. Plates were placed on an orbital shaker for 2 minutes and incubated at room temperature for 10 minutes to stabilize the luminescent signal, which was read immediately after on a CLARIOstar plate reader (BMG Labtech, Germany). […] The HEK293T results represent the means±SEM of 3 technical replicates. The HCO results represent the means±SEM of 3 independent experiments.

RXFP2 = target: T1, RXFP2 (Homo sapiens, UniProt Q8WXD0); test: Luciferase cAMP assay in HEK-CRE-Luc-RXFP2 cells; type: cell-based; settings: for EC50: 3 h treatment; for Emax (% Eff vs. 10 nM INSL3): relative to 10 nM INSL3 response
T1 construct: expressed in transfected cells
T1 sequence (Q8WXD0 whole entry): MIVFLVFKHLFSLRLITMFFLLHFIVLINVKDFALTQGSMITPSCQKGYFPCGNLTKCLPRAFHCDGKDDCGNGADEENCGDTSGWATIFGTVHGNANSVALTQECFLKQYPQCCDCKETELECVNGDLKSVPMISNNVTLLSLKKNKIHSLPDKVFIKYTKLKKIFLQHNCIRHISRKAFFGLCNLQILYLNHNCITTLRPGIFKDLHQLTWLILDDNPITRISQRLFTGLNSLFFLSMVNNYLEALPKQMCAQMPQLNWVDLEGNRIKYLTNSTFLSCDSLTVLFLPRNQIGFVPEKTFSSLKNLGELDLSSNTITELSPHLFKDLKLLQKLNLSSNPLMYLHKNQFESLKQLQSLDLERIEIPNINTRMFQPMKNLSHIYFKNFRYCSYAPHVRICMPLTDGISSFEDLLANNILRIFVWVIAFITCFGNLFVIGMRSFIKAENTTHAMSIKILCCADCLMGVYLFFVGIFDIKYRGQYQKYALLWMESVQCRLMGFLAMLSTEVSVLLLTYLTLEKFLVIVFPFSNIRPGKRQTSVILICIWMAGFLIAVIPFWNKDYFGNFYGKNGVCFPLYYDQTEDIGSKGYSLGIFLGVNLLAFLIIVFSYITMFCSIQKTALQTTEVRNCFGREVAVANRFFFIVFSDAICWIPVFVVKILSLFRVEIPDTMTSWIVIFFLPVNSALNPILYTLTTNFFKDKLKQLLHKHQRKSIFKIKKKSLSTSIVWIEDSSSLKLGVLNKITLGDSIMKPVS
Experimental: A confirmatory cAMP assay was done to eliminate false positives using a HEK293T-CRE-Luc cell line stably transfected with RXFP2 (HEK-CRE-Luc-RXFP2), as this cell line expresses luciferase under the control of the cAMP response element (CRE). Activation of the RXFP2 receptor increases intracellular cAMP levels, inducing luciferase transcription in the nucleus. Thus, luciferase activity in these cells is proportional to cAMP accumulation. For this assay, cells were seeded in 96-well flat-bottom opaque plates at 20,000 cells/well in 60 μL/well of serum-free DMEM medium and allowed to attach overnight at 37° C., 5% CO2. The next morning, cells were treated with 1 μL/well of compound (25 μM-0.21 nM), 1 μM forskolin, or DMSO vehicle. Cells were also treated with 4 μL of INSL3 (100-0.01 nM) (Phoenix Pharmaceuticals, Burlingame, CA) or vehicle serum-free DMEM. Cells were incubated with the treatments for 3 hours at 37° C., 5% CO2, then rested 30 minutes at room temperature for equilibration, after which 65 μL/well of substrate AMPLITE™ Luciferase Reporter Gene Assay Kit (AAT Bioquest, Sunnyvale, CA) was added. Plates were incubated for 40 minutes at room temperature protected from light, and then luciferase output was read on a CLARIOstar plate reader (BMG Labtech, Germany). […]

mouse RXFP2 = target: T2, mouse RXFP2 (Mus musculus, UniProt Q91ZZ5); test: Luciferase cAMP assay in HEK-CRE-Luc cells transiently transfected with mouse RXFP2; type: cell-based; settings: 10 μM-[…], compared with human RXFP2 response
T2 construct: expressed in transfected cells; host or cells: HEK-CRE-Luc (transient, Lipofectamine2000)
T2 sequence (Q91ZZ5 whole entry): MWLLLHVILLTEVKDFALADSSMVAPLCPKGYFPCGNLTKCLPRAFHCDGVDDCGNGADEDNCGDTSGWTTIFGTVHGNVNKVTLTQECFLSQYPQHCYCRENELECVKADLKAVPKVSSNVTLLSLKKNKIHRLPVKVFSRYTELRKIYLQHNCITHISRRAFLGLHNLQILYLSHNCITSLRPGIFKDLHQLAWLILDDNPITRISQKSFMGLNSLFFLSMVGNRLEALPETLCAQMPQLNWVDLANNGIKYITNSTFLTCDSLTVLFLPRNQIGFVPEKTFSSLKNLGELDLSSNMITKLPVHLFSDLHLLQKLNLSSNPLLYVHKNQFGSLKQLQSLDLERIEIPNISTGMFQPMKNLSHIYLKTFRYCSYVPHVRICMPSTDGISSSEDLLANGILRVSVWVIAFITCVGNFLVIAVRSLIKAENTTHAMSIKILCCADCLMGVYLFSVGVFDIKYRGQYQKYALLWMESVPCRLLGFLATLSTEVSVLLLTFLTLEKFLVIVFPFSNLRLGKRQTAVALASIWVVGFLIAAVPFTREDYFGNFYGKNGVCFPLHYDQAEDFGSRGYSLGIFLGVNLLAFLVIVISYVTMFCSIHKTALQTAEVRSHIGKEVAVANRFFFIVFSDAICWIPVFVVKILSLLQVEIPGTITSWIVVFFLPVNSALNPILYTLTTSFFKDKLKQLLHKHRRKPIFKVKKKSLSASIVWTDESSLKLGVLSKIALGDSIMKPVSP
Experimental: It was of interest if the RXFP2 agonists of formula (I) activate the mouse RXFP2 receptor. HEK-CRE-Luc cells transiently transfected with mouse RXFP2 were used to test agonist activity by measuring induction of cAMP. For this assay, cells were seeded in 6-well flat-bottom clear plates at 0.6 million cells/well in 2 mL/well of growth medium (DMEM, 10% FBS, 1× Pen/Strep) and allowed to attach overnight at 37° C., 5% CO2. The next morning, cells were transfected with 2 μg of plasmid (human or mouse RXFP2) and 6 μL of Lipofectamine2000 (Invitrogen, Waltham, MA) in a total volume of 200 μl/well OPTI-MEM™ I (Thermo Fisher, Waltham, MA) reduced serum medium and incubated an additional 24 hours. The transfected cells were then harvested and seeded in 96-well flat-bottom opaque plates at 30,000 cells/well in 60 μL/well of serum-free DMEM medium and incubated overnight to attach. The next morning, cells were treated with 1 μL/well of compound (10 μM-1.2 nM), 2 μM forskolin, or DMSO vehicle, and with 4 μL of positive control INSL3 (100-0.01 nM) (Phoenix Pharmaceuticals, Burlingame, CA) or vehicle serum-free DMEM. […] Plates were incubated for 40 minutes at room temperature protected from light, and the signal was read on a CLARIOstar plate reader (BMG Labtech, Germany). […]

## O=C1Nc2ccc(-c3cccc(C(F)(F)F)c3)cc2C(=O)N2CCN(C(=O)COc3ccc(OC(F)(F)F)cc3Br)C[C@@H]12 [Example 123, (S)-2-(2-(2-bromo-4-(trifluoromethoxy)phenoxy)acetyl)-8-(3-(trifluoromethyl)phenyl)-1,3,4,12a-tetrahydrobenzo[e]pyrazino[1,2-a][1,4]diazepine-6,12 (2H, 11H)-dione]
HEK293T cells
  cytotoxicity: some toxicity
RXFP2; 25 μM-[…]
  EC50: 58.5 nM
RXFP2
  Emax (% Eff vs. 10 nM INSL3): 117.1%
Mouse RXFP2
  mouse RXFP2 activation (cAMP, luciferase): activate the mouse RXFP2 receptor at levels comparable to human RXFP2 activation

## O=C1Nc2ccc(-c3cc(C(F)(F)F)cc(C(F)(F)F)c3)cc2C(=O)N2CCN(C(=O)COc3ccc(OC(F)(F)F)cc3Br)C[C@@H]12 [Example 158, (S)-8-(3,5-Bis(trifluoromethyl)phenyl)-2-(2-(2-bromo-4-(trifluoromethoxy)phenoxy)acetyl)-1,3,4,12a-tetrahydrobenzo[e]pyrazino[1,2-a][1,4]diazepine-6,12 (2H, 11H)-dione]
HEK293T cells
  cytotoxicity: some toxicity
RXFP2; 25 μM-0.21 nM
  EC50: 25.8 nM
RXFP2; luciferase cAMP assay
  RXFP2 agonist activity: potent RXFP2 agonists
RXFP2
  Emax (% Eff vs. 10 nM INSL3): 105.5%
Mouse RXFP2
  mouse RXFP2 activation (cAMP, luciferase): activate the mouse RXFP2 receptor at levels comparable to human RXFP2 activation
